The target of the assay is T1, human kinase Mps-1 (Homo sapiens, UniProt P33981).
T1 construct: N-terminally GST-tagged human full length recombinant Mps-1 kinase; GST (N); purchased Invitrogen, Karslruhe, Germany PV4071
T1 sequence (P33981 1-857): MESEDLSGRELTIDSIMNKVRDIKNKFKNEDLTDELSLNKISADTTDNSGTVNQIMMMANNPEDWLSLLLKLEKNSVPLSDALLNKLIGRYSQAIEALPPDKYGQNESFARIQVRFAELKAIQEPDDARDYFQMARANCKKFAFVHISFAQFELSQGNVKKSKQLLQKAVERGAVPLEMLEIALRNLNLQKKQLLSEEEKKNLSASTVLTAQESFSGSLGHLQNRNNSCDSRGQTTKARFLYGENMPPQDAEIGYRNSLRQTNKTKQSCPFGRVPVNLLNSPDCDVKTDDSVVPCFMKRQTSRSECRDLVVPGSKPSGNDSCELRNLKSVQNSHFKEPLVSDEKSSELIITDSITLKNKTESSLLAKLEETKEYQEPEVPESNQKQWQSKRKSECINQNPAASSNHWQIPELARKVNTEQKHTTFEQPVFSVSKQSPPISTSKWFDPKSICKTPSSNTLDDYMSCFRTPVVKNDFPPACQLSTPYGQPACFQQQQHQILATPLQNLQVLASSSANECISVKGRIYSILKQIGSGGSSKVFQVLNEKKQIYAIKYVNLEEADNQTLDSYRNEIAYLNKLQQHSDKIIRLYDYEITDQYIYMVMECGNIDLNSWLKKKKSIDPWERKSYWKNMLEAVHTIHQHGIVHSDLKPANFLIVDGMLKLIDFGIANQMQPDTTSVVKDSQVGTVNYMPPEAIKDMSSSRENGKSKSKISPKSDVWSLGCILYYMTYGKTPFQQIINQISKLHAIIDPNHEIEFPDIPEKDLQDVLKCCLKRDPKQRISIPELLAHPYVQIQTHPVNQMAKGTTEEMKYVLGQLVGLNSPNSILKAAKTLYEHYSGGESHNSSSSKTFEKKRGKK
The experiment in a line: Mps-1 kinase assay (TR-FRET). Format: biochemical. Conditions: Mps-1 TR-FRET kinase assay; avg; read-out: Mps1 avg (IC50 [mol/l]). A digest of the protocol: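 GST-tagged full-length recombinant human Mps-1 (~0.5 nM) pre-incubated 15 min with compound, then reacted 60 min at 22 °C with 10 μM ATP and 1 μM biotinylated peptide in Hepes pH 7.7 buffer. EDTA-stopped; TR-FRET (Eu anti-phospho-Ser/Thr to SA-XLent) 665/620 nm ratio normalised to no-inhibitor and no-enzyme controls.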
For `Cc1nsc(Nc2cnc(C(F)(F)F)cn2)c1C(=O)Nc1ccc(OCCN(C)CC(F)F)nc1` [Example 349, N-(6-{2-[(2,2-difluoroethyl)(methyl)amino]ethoxy}pyridin-3-yl)-3-methyl-5-{[5-(trifluoromethyl)pyrazin-2-yl]amino}-1,2-thiazole-4-carboxamide], the IC50 is at least 20 µM.
For `Cc1nsc(Nc2cnc(C(F)(F)F)cn2)c1C(=O)Nc1ccc(OC2CCN(C(CF)CF)CC2)nc1` [Example 324, N-(6-{[1-(1,3-difluoropropan-2-yl)piperidin-4-yl]oxy}pyridin-3-yl)-3-methyl-5-{[5-(trifluoromethyl)pyrazin-2-yl]amino}-1,2-thiazole-4-carboxamide] the value was at least 20 µM; for `Cc1nsc(Nc2cnc(C(F)(F)F)cn2)c1C(=O)Nc1ccc(CCC2CCN(CC(F)F)CC2)nc1` [Example 356, N-(6-{2-[1-(2,2-difluoroethyl)piperidin-4-yl]ethyl}pyridin-3-yl)-3-methyl-5-{[5-(trifluoromethyl)pyrazin-2-yl]amino}-1,2-thiazole-4-carboxamide], above 20 µM.
As to `Cc1nsc(Nc2cnc(C(F)(F)F)cn2)c1C(=O)Nc1ccc(O[C@@H]2CCN(CC(F)F)C[C@H]2F)nc1` [Example 366, N-(6-{[(3R,4R)-1-(2,2-difluoroethyl)-3-fluoropiperidin-4-yl]oxy}pyridin-3-yl)-3-methyl-5-{[5-(trifluoromethyl)pyrazin-2-yl]amino}-1,2-thiazole-4-carboxamide], the IC50 is above 20 µM.
The figure for `Cc1nsc(Nc2ccc(C#N)cn2)c1C(=O)Nc1ccc(OC2CCN(CC(F)(F)F)CC2)nc1` [Example 30, 5-[(5-Cyanopyridin-2-yl)amino]-3-methyl-N-(6-{[1-(2,2,2-trifluoroethyl)piperidin-4-yl]oxy}pyridin-3-yl)-1,2-thiazole-4-carboxamide] is at least 20 µM; for `Cc1nsc(Nc2cnc(C(F)(F)F)cn2)c1C(=O)Nc1ccc(OCC2CCN(CCF)CC2)nc1` [Example 344, N-(6-{[1-(2-fluoroethyl)piperidin-4-yl]methoxy}pyridin-3-yl)-3-methyl-5-{[5-(trifluoromethyl)pyrazin-2-yl]amino}-1,2-thiazole-4-carboxamide] it is above 20 µM; for `Cc1nsc(Nc2cnc(C(F)(F)F)cn2)c1C(=O)Nc1ccc(OCC2CCCN(CCF)C2)nc1` (centres unmarked) [Example 325, N-(6-{[1-(2-fluoroethyl)piperidin-3-yl]methoxy}pyridin-3-yl)-3-methyl-5-{[5-(trifluoromethyl)pyrazin-2-yl]amino}-1,2-thiazole-4-carboxamide] it is at least 20 µM.
For `Cc1nsc(Nc2cnc(C(F)(F)F)cn2)c1C(=O)Nc1ccc(OCCCN(C)CCC(F)(F)F)nc1` [Example 355, 3-methyl-N-(6-{3-[methyl(3,3,3-trifluoropropyl)amino]propoxy}pyridin-3-yl)-5-{[5-(trifluoromethyl)pyrazin-2-yl]amino}-1,2-thiazole-4-carboxamide] the value was at least 20 µM; for `Cc1nsc(Nc2cnc(C(F)(F)F)cn2)c1C(=O)Nc1ccc(OCCCN(C)CCF)nc1` [Example 352, N-(6-{3-[(2-fluoroethyl)(methyl)amino]propoxy}pyridin-3-yl)-3-methyl-5-{[5-(trifluoromethyl)pyrazin-2-yl]amino}-1,2-thiazole-4-carboxamide], above 20 µM.
The figure for `Cc1nsc(Nc2cnc(C(F)(F)F)cn2)c1C(=O)Nc1ccc(N2CCN(CCC(F)(F)F)CC2)cn1` [Example 374, 3-methyl-5-{[5-(trifluoromethyl)pyrazin-2-yl]amino}-N-{5-[4-(3,3,3-trifluoropropyl)piperazin-1-yl]pyridin-2-yl}-1,2-thiazole-4-carboxamide] is above 20 µM; for `Cc1nsc(Nc2cnc3ccccc3n2)c1C(=O)Nc1ccc(OC2CCCN(CC(F)F)C2)nc1` (centres unmarked) [Example 33, N-(6-{[1-(2,2-Difluoroethyl)piperidin-3-yl]oxy}pyridin-3-yl)-3-methyl-5-(quinoxalin-2-ylamino)-1,2-thiazole-4-carboxamide] it is at least 20 µM.
With `Cc1nsc(Nc2cncc(C(F)(F)F)n2)c1C(=O)Nc1ccc(F)c(OC2CCN(CCC(F)(F)F)CC2)c1` [Example 343, N-(4-fluoro-3-{[1-(3,3,3-trifluoropropyl)piperidin-4-yl]oxy}phenyl)-3-methyl-5-{[6-(trifluoromethyl)pyrazin-2-yl]amino}-1,2-thiazole-4-carboxamide], the IC50 is at least 20 µM.
In the case of `Cc1nsc(Nc2cnc(C(F)(F)F)cn2)c1C(=O)Nc1ccc(OC2CCCN(C(CF)CF)C2)nc1` (centres unmarked) [Example 333, N-(6-{[1-(1,3-difluoropropan-2-yl)piperidin-3-yl]oxy}pyridin-3-yl)-3-methyl-5-{[5-(trifluoromethyl)pyrazin-2-yl]amino}-1,2-thiazole-4-carboxamide], the IC50 is at least 20 µM.
On to `Cc1nsc(Nc2cnc(C(F)(F)F)cn2)c1C(=O)Nc1ccc(C2CCN(CC(F)F)CC2)nc1` [Example 357, N-{6-[1-(2,2-difluoroethyl)piperidin-4 yl]pyridin-3-yl}-3-methyl-5-{[5-(trifluoromethyl)pyrazin-2-yl]amino}-1,2-thiazole-4-carboxamide], for which the IC50 is above 20 µM.
The figure for `Cc1nsc(Nc2cnc(C(F)(F)F)cn2)c1C(=O)Nc1ccc(N2CCN(CC(F)F)CC2)cn1` [Example 372, N-{5-[4-(2,2-difluoroethyl)piperazin-1-yl]pyridin-2-yl}-3-methyl-5-{[5-(trifluoromethyl)pyrazin-2-yl]amino}-1,2-thiazole-4-carboxamide] is above 20 µM; for `Cc1nsc(Nc2cnc(C(F)(F)F)cn2)c1C(=O)Nc1ccc(OCCCN(C)CC(F)(F)F)nc1` [Example 354, 3-methyl-N-(6-{3-[methyl(2,2,2-trifluoroethyl)amino]propoxy}pyridin-3-yl)-5-{[5-(trifluoromethyl)pyrazin-2-yl]amino}-1,2-thiazole-4-carboxamide] it is at least 20 µM.
The figure for `Cc1nsc(Nc2cnc(C(F)(F)F)cn2)c1C(=O)Nc1ccc(O[C@H]2CCN(CCC(F)(F)F)C[C@@H]2F)nc1` [Example 364, N-(6-{[(3S,4S)-3-fluoro-1-(3,3,3-trifluoropropyl)piperidin-4-yl]oxy}pyridin-3-yl)-3-methyl-5-{[5-(trifluoromethyl)pyrazin-2-yl]amino}-1,2-thiazole-4-carboxamide] is above 20 µM.
For `Cc1nsc(Nc2cnc(C(F)(F)F)cn2)c1C(=O)Nc1ccc(OC[C@@H]2CCCN(CC(F)(F)F)C2)nc1` [Example 376, 3-methyl-N-(6-{[(3R)-1-(2,2,2-trifluoroethyl)piperidin-3-yl]methoxy}pyridin-3-yl)-5-{[5-(trifluoromethyl)pyrazin-2-yl]amino}-1,2-thiazole-4-carboxamide] the value was above 20 µM; for `Cc1nsc(Nc2cnc(C(F)(F)F)cn2)c1C(=O)Nc1ccc(C2CCN(CC(F)(F)F)CC2)nc1` [Example 358, 3-methyl-N-{6-[1-(2,2,2-trifluoroethyl)piperidin-4-yl]pyridin-3-yl}-5-{[5-(trifluoromethyl)pyrazin-2-yl]amino}-1,2-thiazole-4-carboxamide], above 20 µM; for `Cc1nsc(Nc2cnc(C(F)(F)F)cn2)c1C(=O)Nc1ccc(F)c(OCC2CCCN(CCF)C2)c1` (centres unmarked) [Example 336, N-(4-fluoro-3-{[1-(2-fluoroethyl)piperidin-3-yl]methoxy}phenyl)-3-methyl-5-{[5-(trifluoromethyl)pyrazin-2-yl]amino}-1,2-thiazole-4-carboxamide], at least 20 µM.
With `Cc1nsc(Nc2cnc(C(F)(F)F)cn2)c1C(=O)Nc1ccc(O[C@@H]2CCN(CCC(F)(F)F)C[C@H]2F)nc1` [Example 368, N-(6-{[(3R,4R)-3-fluoro-1-(3,3,3-trifluoropropyl)piperidin-4-yl]oxy}pyridin-3-yl)-3-methyl-5-{[5-(trifluoromethyl)pyrazin-2-yl]amino}-1,2-thiazole-4-carboxamide], the IC50 is above 20 µM.
The figure for `Cc1nsc(Nc2cnc(C(F)(F)F)cn2)c1C(=O)Nc1ccc(F)c(OCC2CCCN(CC(F)F)C2)c1` (centres unmarked) [Example 334, N-(3-{[1-(2,2-difluoroethyl)piperidin-3-yl]methoxy}-4-fluorophenyl)-3-methyl-5-{[5-(trifluoromethyl)pyrazin-2-yl]amino}-1,2-thiazole-4-carboxamide] is at least 20 µM; for `Cc1nsc(Nc2ccc(C#N)cn2)c1C(=O)Nc1ccc(OC2CCN(CCF)CC2)nc1` [Example 29, 5-[(5-Cyanopyridin-2-yl)amino]-N-(6-{[1-(2-fluoroethyl)piperidin-4-yl]oxy}pyridin-3-yl)-3-methyl-1,2-thiazole-4-carboxamide] it is at least 20 µM.

Source of the values: patent US20170334899A1, “AMINO-SUBSTITUTED ISOTHIAZOLES” (Bayer Pharma Aktiengesellschaft, priority 2014, published 2017).
